Measurements published in patent US20250002470A1, “NITROGEN-CONTAINING COMPOUND, PREPARATION METHOD THEREFOR AND APPLICATION THEREOF” (ZHEJIANG AIXPLORER BIOTECH CO., LTD., priority 2021, published 2025).

Legend:
hERG potassium channel = hERG potassium channel (Homo sapiens, UniProt Q12809); experiment: Whole-cell patch-clamp (QPatch) of hERG current in HEK293 cells stably expressing hERG; format: cell-based
Method: In this study, a whole-cell patch-clamp technique was used to study the inhibitory effect of compounds on hERG potassium channels and to evaluate the risk of ventricular repolarization toxicity.
The HEK293 cell line stably expressing the hERG potassium channel cells was purchased from Creacell, Inc. (Cat. No. A-0320).
The HEK293 cell line that can stably express the hERG potassium channel, was cultured in DMEM medium containing 10% fetal bovine serum and 0.8 mg/mL G418 at 37° C. and 5% carbon dioxide.
Before the test, the cells were separated with TrypLET Express, centrifuged after adding medium to terminate digestion, resuspended the cell count, adjusted the cell density to 2-3×10^6 cells/mL, and then lightly mixed the cells on a room temperature equilibration shaker for 15-20 min.
Electrophysiological assays were performed using a fully automated patch-clamp QPatch 48 X (Sophion) device. The prepared cells were placed on a centrifuge on the Qpatch bench, the cells were washed using multiple centrifugation/suspension methods, and the cell culture medium was replaced with extracellular fluid. Remove an MTP-96 plate and place it in the location of the MTP source. Remove the QPlate chip and subsequently place the QPlate at the Qplate source location. The robotic arm scans the MTP-96 board and the QPlate chip barcode and grabs it to the measuring station. Draw the intracellular and external fluid from the liquid pool and add them to the intracellular fluid pool, cell and test cell pool of the QPlate chip, respectively. At the measuring station, all measuring sites on the QPlate undergo initial quality control. The quality control process includes aspirating the cell suspension from the cell vessel of the centrifuge and positioning the cells to the chip wells via a pressure controller to establish a high-resistance seal and create a whole-cell recording pattern.
The voltage stimulation protocol for whole-cell patch-clamp recording of whole-cell hERG potassium currents is as follows: the cell membrane voltage clamps at −80 mV when a whole-cell closure is formed. The clamping voltage is depolarized from −80 mV to −50 mV for 0.5 s (as a leakage current detection), then steps to 30 mV for 2.5 s, and then quickly recovers to −50 mV for 4 s to excite the tail current of the hERG channel. The data were collected repeatedly every 10 s to observe the effect of the drug on the hERG tail current. −50 mV stimulation at 0.5 s was used as the leakage current detection. The test data is collected by Qpatch and stored in the connected service station.
First, the current after the effect of each drug concentration and the blank control current are normalized 0, and then the inhibition rate corresponding to each drug concentration is calculated.
Calculate the mean and standard error for each concentration and calculate the semi-inhibitory concentration for each compound using the following Formula:
Y=Bottom+(Top−Bottom)/(1+10^((LogIC50−X)*HillSlope)) The above Formula was used to fit the dose-dependent effect nonlinearly, where C represents the test substance concentration, IC50 is the semi-inhibitory concentration, and h represents the Hill coefficient. Curve fitting and IC50 calculations were performed using Graphpad software.

IL-1β = experiment: Inflammatory factor IL-1β in serum and colon, DSS-induced acute enteritis mouse model; format: in vivo, C57BL/6 mice; details: 50 mpk, BID
Method: Grouping and modeling: One day before the start of the experiment, all C57BL/6 mice were ear-labeled and recorded, and the animals with appropriate weight and normal status were selected for grouping (Sham group, vehicle group and embodiment 33 group). 10 animals per group; 3.5% dextran sulfate sodium salt (DSS, MP, molecular weight 36000-50000) prepared with sterile water is loaded into the drinking bottle in the vehicle and the 33 testing groups of rearing cages in the embodiment (100 mL per cage, replace the 3.5% DSS solution after 2-3 days with freshly prepared solution), and the animals in the vehicle and the 33 testing groups of the embodiment are free to drink for 10 consecutive days. The Sham group drank the normal water not containing DSS. Embodiment 33 compound is administered orally BID.
4) Detection of inflammatory factors: Blood was collected from all animals under their jaws, and serum was separated; serum and colon tissue IL-10 and IL-18 cytokines were detected according to the detection method in the Effect Embodiment 4.

Chain of hERG potassium channel (Q12809 whole entry): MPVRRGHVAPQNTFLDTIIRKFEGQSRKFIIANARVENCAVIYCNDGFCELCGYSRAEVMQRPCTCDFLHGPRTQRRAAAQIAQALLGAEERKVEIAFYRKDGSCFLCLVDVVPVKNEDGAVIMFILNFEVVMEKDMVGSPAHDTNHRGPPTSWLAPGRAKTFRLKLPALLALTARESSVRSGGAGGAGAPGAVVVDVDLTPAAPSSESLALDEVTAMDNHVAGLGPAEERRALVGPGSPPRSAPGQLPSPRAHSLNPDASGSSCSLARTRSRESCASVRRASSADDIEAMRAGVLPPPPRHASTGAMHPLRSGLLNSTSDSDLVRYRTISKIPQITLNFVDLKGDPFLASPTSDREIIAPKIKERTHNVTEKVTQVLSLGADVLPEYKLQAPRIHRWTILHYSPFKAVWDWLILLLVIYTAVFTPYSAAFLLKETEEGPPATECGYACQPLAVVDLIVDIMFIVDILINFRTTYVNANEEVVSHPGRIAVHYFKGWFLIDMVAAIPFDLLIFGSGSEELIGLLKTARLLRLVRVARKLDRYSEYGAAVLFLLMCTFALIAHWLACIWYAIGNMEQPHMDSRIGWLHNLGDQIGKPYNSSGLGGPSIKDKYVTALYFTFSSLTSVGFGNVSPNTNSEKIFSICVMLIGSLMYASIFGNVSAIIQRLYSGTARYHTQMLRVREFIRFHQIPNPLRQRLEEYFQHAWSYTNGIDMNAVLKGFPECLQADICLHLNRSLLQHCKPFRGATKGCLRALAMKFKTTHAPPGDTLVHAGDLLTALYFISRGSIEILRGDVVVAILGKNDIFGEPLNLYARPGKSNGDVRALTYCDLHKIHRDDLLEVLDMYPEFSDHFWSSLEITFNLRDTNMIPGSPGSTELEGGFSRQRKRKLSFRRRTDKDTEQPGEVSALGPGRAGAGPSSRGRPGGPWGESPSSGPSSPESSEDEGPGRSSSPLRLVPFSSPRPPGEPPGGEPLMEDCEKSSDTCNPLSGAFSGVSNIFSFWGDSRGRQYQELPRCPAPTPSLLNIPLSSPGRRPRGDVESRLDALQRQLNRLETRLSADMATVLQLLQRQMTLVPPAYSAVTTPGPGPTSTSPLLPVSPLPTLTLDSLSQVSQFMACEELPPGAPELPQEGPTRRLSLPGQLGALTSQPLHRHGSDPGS

SMILES: Cc1nc(N[C@@H]2CCCC[C@H]2O)nnc1-c1ccc(C(F)(F)F)cc1O [Embodiment 33]
- IC50 (hERG potassium channel): > 30 µM
- IL-1β in serum (IL-1β): 290.3 ± 30.65
- IL-1β in the colon (IL-1β): 6.018 ± 0.9675
